Test results published in ChEMBL document CHEMBL1150976, “The selectivity of protein kinase inhibitors: a further update” (Biochem J, 2007).

Assays:
[1] = molecular target: Mitogen-activated protein kinase 3 (Homo sapiens) (UniProt P27361); assay: Percentage ERK1 activity remaining in the presence of 2uM inhibitor
[2] = molecular target: Ribosomal protein S6 kinase beta-1 (Homo sapiens, UniProt P23443); assay: Percentage S6K1 activity remaining in the presence of 2uM inhibitor
[3] = molecular target: Mitogen-activated protein kinase 14 (Homo sapiens, UniProt Q16539); assay: Percentage p38alpha activity remaining in the presence of 2uM inhibitor
[4] = molecular target: T1, Dual specificity tyrosine-phosphorylation-regulated kinase 3 (Homo sapiens) (UniProt O43781); assay: Percentage DYRK3 activity remaining in the presence of 2uM inhibitor
T1 sequence (whole entry): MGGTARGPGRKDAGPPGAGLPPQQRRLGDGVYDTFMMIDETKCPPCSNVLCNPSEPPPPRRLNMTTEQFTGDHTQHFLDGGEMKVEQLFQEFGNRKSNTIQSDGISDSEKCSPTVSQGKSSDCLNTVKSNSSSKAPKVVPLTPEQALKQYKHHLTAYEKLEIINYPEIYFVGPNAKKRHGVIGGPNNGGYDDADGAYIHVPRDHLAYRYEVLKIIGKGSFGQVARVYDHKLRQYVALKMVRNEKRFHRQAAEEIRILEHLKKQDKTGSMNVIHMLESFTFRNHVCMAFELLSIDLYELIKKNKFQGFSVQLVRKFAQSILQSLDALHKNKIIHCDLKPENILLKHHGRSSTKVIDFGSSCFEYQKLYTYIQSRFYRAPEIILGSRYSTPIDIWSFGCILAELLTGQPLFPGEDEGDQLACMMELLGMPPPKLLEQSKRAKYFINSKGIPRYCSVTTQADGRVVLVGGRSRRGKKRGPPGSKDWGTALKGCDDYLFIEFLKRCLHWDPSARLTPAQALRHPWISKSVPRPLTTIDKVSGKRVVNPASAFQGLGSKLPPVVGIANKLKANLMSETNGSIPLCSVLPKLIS

[5] = molecular target: Serine/threonine-protein kinase Chk2 (Homo sapiens) (UniProt O96017); assay: Percentage CHK2 activity remaining in the presence of 2uM inhibitor
[6] = molecular target: Dual specificity mitogen-activated protein kinase kinase 1 (Homo sapiens) (UniProt Q02750); assay: Percentage MKK1 activity remaining in the presence of 2uM inhibitor
[7] = molecular target: Serine/threonine-protein kinase pim-1 (Homo sapiens, UniProt P11309); assay: Percentage PIM1 activity remaining in the presence of 2uM inhibitor
[8] = molecular target: Rho-associated protein kinase 2 (Homo sapiens) (UniProt O75116); assay: Percentage ROCK2 activity remaining in the presence of 2uM inhibitor
[9] = molecular target: Proto-oncogene tyrosine-protein kinase LCK (Mus musculus, UniProt P06240); assay: Inhibition of Lck in the presence of 50uM ATP
[10] = molecular target: T2, Mitogen-activated protein kinase 13 (Homo sapiens) (UniProt O15264); assay: Percentage p38delta activity remaining in the presence of 3uM inhibitor
T2 sequence (whole entry): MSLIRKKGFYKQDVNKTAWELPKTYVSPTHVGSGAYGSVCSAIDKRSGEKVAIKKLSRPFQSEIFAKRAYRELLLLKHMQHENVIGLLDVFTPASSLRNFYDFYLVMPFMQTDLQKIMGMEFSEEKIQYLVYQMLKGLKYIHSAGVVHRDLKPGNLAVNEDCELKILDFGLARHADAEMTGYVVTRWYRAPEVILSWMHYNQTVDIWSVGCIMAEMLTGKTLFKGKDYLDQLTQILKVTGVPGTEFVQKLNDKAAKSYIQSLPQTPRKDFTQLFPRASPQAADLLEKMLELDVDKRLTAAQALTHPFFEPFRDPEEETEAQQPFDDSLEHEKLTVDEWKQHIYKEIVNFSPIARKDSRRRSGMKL

[11] = molecular target: Serine/threonine-protein kinase Nek6 (Homo sapiens) (UniProt Q9HC98); assay: Percentage NEK6 activity remaining in the presence of 3uM inhibitor
[12] = molecular target: T3, Dual specificity tyrosine-phosphorylation-regulated kinase 2 (Homo sapiens) (UniProt Q92630); assay: Percentage DYRK2 activity remaining in the presence of 3uM inhibitor
T3 sequence (whole entry): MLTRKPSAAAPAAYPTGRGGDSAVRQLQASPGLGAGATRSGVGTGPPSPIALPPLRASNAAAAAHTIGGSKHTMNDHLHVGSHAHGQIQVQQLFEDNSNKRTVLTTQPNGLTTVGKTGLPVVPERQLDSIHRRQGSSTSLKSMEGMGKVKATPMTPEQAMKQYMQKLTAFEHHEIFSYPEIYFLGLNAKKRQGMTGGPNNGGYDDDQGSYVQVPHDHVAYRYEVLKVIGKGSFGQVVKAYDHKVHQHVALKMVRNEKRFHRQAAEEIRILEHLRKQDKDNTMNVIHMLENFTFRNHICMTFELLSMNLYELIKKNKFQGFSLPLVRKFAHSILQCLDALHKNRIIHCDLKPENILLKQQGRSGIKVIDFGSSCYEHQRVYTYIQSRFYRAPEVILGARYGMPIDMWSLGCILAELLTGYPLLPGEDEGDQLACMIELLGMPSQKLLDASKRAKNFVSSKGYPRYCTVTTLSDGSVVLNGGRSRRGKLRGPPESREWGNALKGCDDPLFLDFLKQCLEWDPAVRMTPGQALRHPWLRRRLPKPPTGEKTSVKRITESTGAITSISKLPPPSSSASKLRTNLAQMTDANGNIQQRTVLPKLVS

[13] = molecular target: MAP kinase-interacting serine/threonine-protein kinase 2 (Homo sapiens) (UniProt Q9HBH9); assay: Percentage MNK2 activity remaining in the presence of 3uM inhibitor
Aurora kinase B = Aurora kinase B (Homo sapiens, UniProt Q96GD4); assay: Percentage Aurora B activity remaining in the presence of 3uM inhibitor
[14] = molecular target: Calcium/calmodulin-dependent protein kinase kinase 1 (Homo sapiens) (UniProt Q8N5S9); assay: Percentage CaMKKalpha activity remaining in the presence of 3uM inhibitor
[15] = molecular target: Protein kinase C alpha type (Homo sapiens) (UniProt P17252); assay: Percentage PKCalpha activity remaining in the presence of 3uM inhibitor
[16] = molecular target: Mitogen-activated protein kinase 8 (Homo sapiens, UniProt P45983); assay: Percentage JNK1 activity remaining in the presence of 3uM inhibitor
[17] = molecular target: Serine/threonine-protein kinase Nek7 (Homo sapiens) (UniProt Q8TDX7); assay: Percentage NEK7 activity remaining in the presence of 3uM inhibitor
Sequence of Serine/threonine-protein kinase Nek7 (Homo sapiens) (Q8TDX7 whole entry, looked up): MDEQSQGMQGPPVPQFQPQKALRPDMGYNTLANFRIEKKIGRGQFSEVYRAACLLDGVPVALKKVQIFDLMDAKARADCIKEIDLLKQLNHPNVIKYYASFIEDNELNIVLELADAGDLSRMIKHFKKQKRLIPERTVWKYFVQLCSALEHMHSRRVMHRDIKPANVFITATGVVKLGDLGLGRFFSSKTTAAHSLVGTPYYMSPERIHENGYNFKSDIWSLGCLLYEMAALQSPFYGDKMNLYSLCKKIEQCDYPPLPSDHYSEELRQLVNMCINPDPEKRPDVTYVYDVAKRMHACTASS

Sequence of Calcium/calmodulin-dependent protein kinase kinase 1 (Homo sapiens) (Q8N5S9 whole entry, looked up): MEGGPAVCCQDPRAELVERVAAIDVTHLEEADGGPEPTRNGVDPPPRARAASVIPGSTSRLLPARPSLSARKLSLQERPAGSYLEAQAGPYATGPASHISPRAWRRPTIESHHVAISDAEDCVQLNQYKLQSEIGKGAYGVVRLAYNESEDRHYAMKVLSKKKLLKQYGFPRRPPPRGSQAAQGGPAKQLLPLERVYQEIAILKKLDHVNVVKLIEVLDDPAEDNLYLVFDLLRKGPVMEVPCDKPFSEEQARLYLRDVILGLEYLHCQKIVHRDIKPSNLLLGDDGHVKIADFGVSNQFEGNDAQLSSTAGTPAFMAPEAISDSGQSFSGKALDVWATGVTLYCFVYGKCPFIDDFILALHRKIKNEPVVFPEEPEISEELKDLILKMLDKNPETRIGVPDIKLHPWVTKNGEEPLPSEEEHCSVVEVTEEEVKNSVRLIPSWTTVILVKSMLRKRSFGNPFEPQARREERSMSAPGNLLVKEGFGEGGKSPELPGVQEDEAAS
Sequence of Ribosomal protein S6 kinase beta-1 (P23443 whole entry, looked up): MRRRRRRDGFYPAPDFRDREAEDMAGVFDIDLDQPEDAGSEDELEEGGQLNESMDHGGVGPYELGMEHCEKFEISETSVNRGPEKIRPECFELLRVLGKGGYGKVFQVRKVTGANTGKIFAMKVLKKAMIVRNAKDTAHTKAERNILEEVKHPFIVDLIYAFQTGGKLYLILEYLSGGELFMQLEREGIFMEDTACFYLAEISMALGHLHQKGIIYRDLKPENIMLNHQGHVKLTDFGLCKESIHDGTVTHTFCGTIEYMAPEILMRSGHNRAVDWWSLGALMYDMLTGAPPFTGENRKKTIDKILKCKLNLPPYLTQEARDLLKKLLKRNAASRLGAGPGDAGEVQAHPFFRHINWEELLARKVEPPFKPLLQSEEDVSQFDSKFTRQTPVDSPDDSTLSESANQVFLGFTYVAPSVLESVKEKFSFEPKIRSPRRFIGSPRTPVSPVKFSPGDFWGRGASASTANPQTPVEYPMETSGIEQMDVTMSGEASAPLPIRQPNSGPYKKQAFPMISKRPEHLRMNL
Sequence of Mitogen-activated protein kinase 3 (Homo sapiens) (P27361 whole entry): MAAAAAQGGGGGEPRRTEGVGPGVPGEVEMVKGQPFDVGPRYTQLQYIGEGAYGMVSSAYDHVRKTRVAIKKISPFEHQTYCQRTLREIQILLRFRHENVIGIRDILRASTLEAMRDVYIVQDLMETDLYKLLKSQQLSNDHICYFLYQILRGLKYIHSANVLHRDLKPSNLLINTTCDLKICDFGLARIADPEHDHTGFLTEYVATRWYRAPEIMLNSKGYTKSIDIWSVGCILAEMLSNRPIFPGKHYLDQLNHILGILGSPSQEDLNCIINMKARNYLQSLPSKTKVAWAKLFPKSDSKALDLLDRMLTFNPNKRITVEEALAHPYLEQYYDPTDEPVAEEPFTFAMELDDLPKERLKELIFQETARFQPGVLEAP
Sequence of Dual specificity mitogen-activated protein kinase kinase 1 (Homo sapiens) (Q02750 whole entry): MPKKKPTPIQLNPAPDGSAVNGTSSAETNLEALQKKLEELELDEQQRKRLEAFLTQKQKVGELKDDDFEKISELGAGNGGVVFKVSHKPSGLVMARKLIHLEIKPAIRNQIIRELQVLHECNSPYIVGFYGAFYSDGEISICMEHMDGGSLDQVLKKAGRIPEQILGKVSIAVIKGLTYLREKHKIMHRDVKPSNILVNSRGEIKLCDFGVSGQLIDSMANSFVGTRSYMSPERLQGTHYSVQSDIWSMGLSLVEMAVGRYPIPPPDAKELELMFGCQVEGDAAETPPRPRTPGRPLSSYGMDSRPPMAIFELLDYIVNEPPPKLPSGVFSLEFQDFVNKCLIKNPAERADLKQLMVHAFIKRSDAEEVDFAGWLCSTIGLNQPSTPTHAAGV
Sequence of Mitogen-activated protein kinase 8 (P45983 whole entry): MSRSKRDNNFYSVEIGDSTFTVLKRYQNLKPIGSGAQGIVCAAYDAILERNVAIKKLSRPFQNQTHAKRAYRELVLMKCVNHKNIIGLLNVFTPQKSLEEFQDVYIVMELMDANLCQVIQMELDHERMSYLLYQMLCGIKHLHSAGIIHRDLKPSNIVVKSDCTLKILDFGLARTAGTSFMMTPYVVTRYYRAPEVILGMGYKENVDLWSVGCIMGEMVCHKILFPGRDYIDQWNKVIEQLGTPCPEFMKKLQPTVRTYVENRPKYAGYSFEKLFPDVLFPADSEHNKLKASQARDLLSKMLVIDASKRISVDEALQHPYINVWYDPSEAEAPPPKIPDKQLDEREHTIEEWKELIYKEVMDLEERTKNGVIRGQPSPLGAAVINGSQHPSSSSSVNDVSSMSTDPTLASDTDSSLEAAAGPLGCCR
Sequence of Serine/threonine-protein kinase Chk2 (Homo sapiens) (O96017 whole entry): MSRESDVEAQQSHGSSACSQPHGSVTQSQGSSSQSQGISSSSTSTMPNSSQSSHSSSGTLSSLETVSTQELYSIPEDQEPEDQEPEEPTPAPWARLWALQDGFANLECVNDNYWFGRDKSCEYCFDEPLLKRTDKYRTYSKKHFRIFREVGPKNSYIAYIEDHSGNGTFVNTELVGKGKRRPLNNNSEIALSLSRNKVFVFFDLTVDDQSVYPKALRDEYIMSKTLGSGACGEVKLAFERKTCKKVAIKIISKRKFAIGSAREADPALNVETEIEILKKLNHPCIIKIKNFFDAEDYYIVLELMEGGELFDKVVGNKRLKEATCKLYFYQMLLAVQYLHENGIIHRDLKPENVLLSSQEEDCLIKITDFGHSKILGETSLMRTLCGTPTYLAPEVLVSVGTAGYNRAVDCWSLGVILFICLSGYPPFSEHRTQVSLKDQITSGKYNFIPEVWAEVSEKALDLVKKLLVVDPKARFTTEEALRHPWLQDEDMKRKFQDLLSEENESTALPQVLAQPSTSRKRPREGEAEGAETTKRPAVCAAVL
Sequence of Proto-oncogene tyrosine-protein kinase LCK (P06240 whole entry): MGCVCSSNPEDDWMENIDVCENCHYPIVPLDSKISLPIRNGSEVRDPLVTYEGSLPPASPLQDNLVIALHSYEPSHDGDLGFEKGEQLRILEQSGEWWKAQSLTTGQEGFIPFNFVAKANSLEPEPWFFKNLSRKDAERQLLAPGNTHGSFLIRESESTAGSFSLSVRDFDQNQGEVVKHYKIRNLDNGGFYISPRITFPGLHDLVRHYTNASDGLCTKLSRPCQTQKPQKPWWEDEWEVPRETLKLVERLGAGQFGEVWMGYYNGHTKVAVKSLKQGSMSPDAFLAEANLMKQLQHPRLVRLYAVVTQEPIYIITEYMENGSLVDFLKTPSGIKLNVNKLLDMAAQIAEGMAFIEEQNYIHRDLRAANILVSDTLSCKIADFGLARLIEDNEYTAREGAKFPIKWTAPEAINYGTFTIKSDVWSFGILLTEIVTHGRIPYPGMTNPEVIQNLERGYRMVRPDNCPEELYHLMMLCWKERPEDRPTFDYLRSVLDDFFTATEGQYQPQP
Sequence of Mitogen-activated protein kinase 14 (Q16539 whole entry): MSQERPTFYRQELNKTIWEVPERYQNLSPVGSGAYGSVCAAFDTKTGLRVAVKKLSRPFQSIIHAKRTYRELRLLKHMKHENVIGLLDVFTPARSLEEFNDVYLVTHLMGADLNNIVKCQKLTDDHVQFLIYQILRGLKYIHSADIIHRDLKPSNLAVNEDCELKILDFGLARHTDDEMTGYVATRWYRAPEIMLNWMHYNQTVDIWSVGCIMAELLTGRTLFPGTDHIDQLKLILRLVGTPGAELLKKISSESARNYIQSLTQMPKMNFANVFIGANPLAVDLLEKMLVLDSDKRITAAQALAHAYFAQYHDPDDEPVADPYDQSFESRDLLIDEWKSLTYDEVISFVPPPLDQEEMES
Sequence of Aurora kinase B (Q96GD4 whole entry): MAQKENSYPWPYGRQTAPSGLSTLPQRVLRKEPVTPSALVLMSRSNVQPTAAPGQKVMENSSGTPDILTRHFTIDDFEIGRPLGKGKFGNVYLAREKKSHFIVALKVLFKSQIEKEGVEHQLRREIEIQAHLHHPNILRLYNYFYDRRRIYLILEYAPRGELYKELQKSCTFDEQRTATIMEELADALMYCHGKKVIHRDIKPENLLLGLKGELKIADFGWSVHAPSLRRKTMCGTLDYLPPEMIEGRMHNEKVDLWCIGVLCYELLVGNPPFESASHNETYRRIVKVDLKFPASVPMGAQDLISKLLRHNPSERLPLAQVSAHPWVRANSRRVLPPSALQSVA

Activity [1] [%]	Activity [2] [%]	Activity [3] [%]	Activity [4] [%]	Activity [5] [%]	Activity [6] [%]	Activity [7] [%]	Activity [8] [%]	IC50 [9]	Activity [10] [%]	Activity [11] [%]	Activity [12] [%]	Activity [13] [%]	Activity (Aurora kinase B) [%]	Activity [14] [%]	Activity [15] [%]	Activity [16] [%]	Activity [17] [%]	SMILES
99	86	77	79	93	71	56	101											Cn1cc(C2=C(c3ccc(Cl)cc3Cl)C(=O)NC2=O)c2ccccc21
								750 nM (antagonist)	103	90	91	65	59	70	85	81	92	Cc1ccc(-c2c(C(=O)CF)n(CCCO)c3ncnc(N)c23)cc1
